These results are taken from patent US11203577B2, “Sulfonyl-structure-containing triazinone derivatives, their preparation methods and their uses in insect killing and/or bacterium killing” (Nankai University, priority 2017, dated 2021).

In one data set the test system is Watermelon anthracnose. Nature of the data set: In vitro fungicidal activity, PDA colony diameter. Type of data set: cell-based. The settings on record: read-out: Fungicidal activity (%) Watermelon anthracnose.
For data set [1], the system named is Corn southern leaf blight. Nature of the data set: In vitro fungicidal activity, PDA colony diameter. The settings on record: 50 mg/kg, inhibition of colony diameter; read-out: Fungicidal activity (%) Corn southern leaf blight. Type of data set: cell-based.
Another data set has as its system Maize borers. The experiment in a line: Test of insecticidal activity against maize borers (leaf immersion). The following applies: read-out: Mortalities (%) Maize borers.
For data set [2], the system named is Cercospora brown spot of peanut. Nature of the data set: In vitro fungicidal activity, PDA colony diameter. The settings on record: 96 h, 50 mg/kg, inhibition of colony diameter, read-out: Fungicidal activity (%) Cercospora brown spot of peanut. Type of data set: cell-based.
Another data set relates to Wheat sheath blight. Nature of the data set: In vitro fungicidal activity, PDA colony diameter. The following applies: 50 mg/kg, inhibition of colony diameter; read-out: Fungicidal activity (%) Wheat sheath blight. Type of data set: cell-based.
Another data set has as its system Potato late blight. Nature of the data set: microbe, parasite or virus in culture. Type of data set: cell-based. The settings on record: Phytophthora infestans, 96 h, read-out: Fungicidal activity (%) Potato late blight.
The next data set relates to Tomato early blight. The experiment in a line: In vitro fungicidal activity, PDA colony diameter. Type of data set: cell-based, Alternaria solani. The settings on record: 50 mg/kg, inhibition of colony diameter; read-out: Fungicidal activity (%) Tomato early blight.
The subject of the next data set is Wheat head blight. The experiment in a line: whole plant or invertebrate. Type of data set: cell-based. The following applies: Triticum aestivum, read-out: Fungicidal activity (%) Wheat head blight.
Data set [3] deals with mosquito larvae (Culer pipiens pallens). The experiment in a line: Test of insecticidal activity against mosquito larvae (checked after 24 h).
For a further data set, the system named is Cotton bollworms. Nature of the data set: Test of insecticidal activity against cotton bollworms (pesticide mixed into feedstuff). The following applies: read-out: Mortalities (%) Cotton bollworms.
The subject of the next data set is Cucumber fusarium wilt. The experiment in a line: In vitro fungicidal activity, PDA colony diameter. Type of data set: cell-based. The following applies: 96 h, 50 mg/kg, inhibition of colony diameter, read-out: Fungicidal activity (%) Cucumber fusarium wilt.
In another data set the test system is Sclerotinia rot of colza. The experiment in a line: In vitro fungicidal activity, PDA colony diameter. Type of data set: cell-based. The following applies: 96 h, 50 mg/kg, inhibition of colony diameter, read-out: Fungicidal activity (%) Sclerotinia rot of colza.
The next data set concerns Armyworms. The experiment in a line: Test of insecticidal activity against armyworms (leaf immersion). The settings on record: 600 mg/kg, 3-4 days.
Data set [4] deals with bean aphides (Aphis laburni Kaltenbach). The experiment in a line: Test of insecticidal activity against aphides (leaf immersion, checked after 96 h). The following applies: for insecticidal activity against aphides compared with pymetrozine: 5 mg/kg; for mortality at 5 mg/kg / mortality at 10 mg/kg / mortality at 100 mg/kg / mortality at 600 mg/kg: Aphis, 96 h, read-out: Mortalities (%) against aphides.

Data set [5] deals with Capsicum phytophthora blight. The experiment in a line: In vitro fungicidal activity, PDA colony diameter. The settings on record: 96 h. Type of data set: cell-based. In outline:
(§1)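 Mycelial plugs cut from the edge of 7-day PDA colonies placed on PDA containing 50 mg/kg compound or on compound-free PDA, grown 4 days. Colony diameters measured; percent inhibition calculated against untreated control.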

The next data set deals with Apple ring rot. Nature of the data set: In vitro fungicidal activity, PDA colony diameter. The settings on record: inhibition of colony diameter. Type of data set: cell-based. In outline:
as §1

In the next data set the test system is Rice bakanae disease. The experiment in a line: In vitro fungicidal activity, PDA colony diameter. Type of data set: cell-based. The settings on record: read-out: Fungicidal activity (%) Rice bakanae disease.
The test system of another data set is Rice sheath blight. The experiment in a line: In vitro fungicidal activity, PDA colony diameter. The following applies: 50 mg/kg, inhibition of colony diameter; read-out: Fungicidal activity (%) Rice sheath blight. Type of data set: cell-based.
Setting [6] is: 50 mg/kg, inhibition of colony diameter.
Where [7] appears, read: 24 h, read-out: Mortalities (%) against mosquito larvae.

Read-outs that look alike come from different tables or passages of the source.

Protocol for Cotton bollworms: Method of testing against cotton bollworms: the pesticide is mixed into the feedstuff, i.e., 3 mL prepared solution is added into about 27 g freshly prepared feedstuff; thus, required concentration is obtained by diluting by 10 times.

Consider `CC1=NNC(=O)N(N(S(C)(=O)=O)S(C)(=O)=O)C1` [Ib-1, N-(6-methyl-3-oxo-2,3-dihydro-1,2,4-triazin-4(5H)-yl)-N-(methylsulfonyl)-methylsulfonylamide], for which the inhibition at 50 mg/kg stood at 20.8% in the data set on Watermelon anthracnose (setting [6]); 12.5% in [1]; 56.8% in the data set with Wheat sheath blight; 23.8% in the data set with Tomato early blight; 6.7% in the data set with Wheat head blight; 20.7% with Apple ring rot. The inhibition at 50 mg/kg in the data set on Rice bakanae disease (setting [6]) is 44.4%; with Rice sheath blight it was 34.9%. Besides, the mortality at 600 mg/kg with Maize borers came to 10%; with Cotton bollworms, 30%; in [4], 100%. Also, the inhibition of growth at 50 mg/kg in data set [2] worked out at 15.8%; in the data set with Potato late blight it was 29.6%; in the data set with Cucumber fusarium wilt, 0%; in the data set on Sclerotinia rot of colza, 36.7%; in data set [5] it was 26.5%. In addition, the figures for the mortality at 10 mg/kg in [3] (setting [7]) and in data set [4] were 35% and 100%, respectively. The “Mortalities (%) Armyworms” value in the data set with Armyworms is 15%. Also, the “insecticidal activity against aphides compared with pymetrozine” value in [4] is listed as “equivalent to the insecticidal activity of pymetrozine”. The mortality at 5 mg/kg in [4] was 20%. The mortality at 100 mg/kg in data set [4] is 100%.

For the molecule `CC1=NNC(=O)N(N(S(=O)(=O)c2ccc(C)cc2)S(=O)(=O)c2ccc(C)cc2)C1` [Ib-6, 4-methyl-N-(6-methyl-3-oxo-2,3-dihydro-1,2,4-triazin-4(5H)-yl)-N-(4-methylbenzenesulfonyl)benzenesulfonamide], the inhibition at 50 mg/kg with Watermelon anthracnose (setting [6]) turned out to be 29.2%; in data set [1] it was 16.7%; in the data set with Wheat sheath blight, 56.8%; in the data set on Tomato early blight, 23.8%; with Wheat head blight it was 13.3%; in the data set with Apple ring rot, 27.6%. In addition, the results for the inhibition at 50 mg/kg with Rice bakanae disease and in the data set with Rice sheath blight were 22.2% and 50.8%, respectively. Moreover, the mortality at 600 mg/kg with Maize borers was 15%; in the data set with Cotton bollworms, 15%; in [4] it was 100%. For the same molecule, the inhibition of growth at 50 mg/kg in data set [2] was determined as 15.8%; with Potato late blight it was 22.2%; in the data set with Cucumber fusarium wilt, 0%; with Sclerotinia rot of colza it was 15%; in data set [5], 26.5%. The mortality at 10 mg/kg in data set [3] (setting [7]) amounted to 35%; in data set [4], 30%. In addition, the “Mortalities (%) Armyworms” value with Armyworms is given as 15%. Moreover, the mortality at 100 mg/kg in data set [4] was found to be 80%.

With `CC1=NNC(=O)N(NS(=O)(=O)c2ccc(F)cc2F)C1` [Ia-19, 2,4-difluoro-N-(6-methyl-3-oxo-2,3-dihydro-1,2,4-triazin-4(5H)-yl)-benzenesulfonamide], the inhibition at 50 mg/kg in the data set with Watermelon anthracnose (setting [6]) is 16.4%; in [1] it was 18.7%; in the data set with Wheat sheath blight, 0%; in the data set with Tomato early blight, 19.4%; with Wheat head blight, 5.4%; with Apple ring rot it was 24.3%. Moreover, the inhibition at 50 mg/kg turned out to be 17.2% in the data set on Rice bakanae disease (setting [6]) and 11.6% in the data set on Rice sheath blight. Moreover, the mortality at 600 mg/kg in the data set with Maize borers is 20%; with Cotton bollworms, 20%; in [4] it was 100%. Further, the inhibition of growth at 50 mg/kg in data set [2] was 12%; in the data set on Potato late blight, 25%; with Cucumber fusarium wilt, 11.8%; with Sclerotinia rot of colza, 15.8%; in [5], 5.6%. The mortality at 1 mg/kg in [3] (setting [7]) was 60%. Also, the mortality at 2 mg/kg in data set [3] (setting [7]) came to 100%. In addition, the figures for the mortality at 5 mg/kg in [3] (setting [7]) and in [4] were 100% and 25%, respectively. For the same molecule, the mortality at 10 mg/kg was 100% in data set [3] (setting [7]) and 85% in data set [4]. Besides, in data set [3] (in vivo), the “insecticidal activity against mosquito larvae” value is reported as “relatively high insecticidal activity”. For the same molecule, the “Mortalities (%) Armyworms” value with Armyworms was determined as 25%. The “insecticidal activity against aphides compared with pymetrozine” value in data set [4] is given as “equivalent to the insecticidal activity of pymetrozine”. Besides, the mortality at 100 mg/kg in [4] was found to be 100%.

With `CC1=NNC(=O)N(NS(=O)(=O)c2ccsc2)C1` [Ia-29, N-(6-methyl-3-oxo-2,3-dihydro-1,2,4-triazin-4(5H)-yl)-thienyl-3-sulfonamide], the inhibition at 50 mg/kg with Watermelon anthracnose (setting [6]) came out at 18.8%; in data set [1], 13.9%; with Wheat sheath blight it was 20.8%; in the data set with Tomato early blight it was 25%; with Wheat head blight, 21.2%; in the data set on Apple ring rot, 52.4%. In addition, the figures for the inhibition at 50 mg/kg with Rice bakanae disease (setting [6]) and with Rice sheath blight were 3.7% and 35.7%, respectively. Further, the figures for the mortality at 600 mg/kg (in the data set with Maize borers; with Cotton bollworms; in data set [4]) were 15%, 20% and 95%, respectively. Besides, the inhibition of growth at 50 mg/kg in [2] was 19.2%; in the data set on Potato late blight it was 23.8%; in the data set on Cucumber fusarium wilt it was 12.8%; with Sclerotinia rot of colza, 12.5%; in data set [5] it was 23.1%. For the same molecule, the mortality at 10 mg/kg in data set [3] (setting [7]) is 35%; in data set [4], 30%. For the same molecule, in the data set with Armyworms, the “Mortalities (%) Armyworms” value came out at 10%. Further, the mortality at 100 mg/kg in [4] is 85%.

For `CCCS(=O)(=O)NN1CC(C)=NNC1=O` [Ia-3, N-(6-methyl-3-oxo-2,3-dihydro-1,2,4-triazin-4(5H)-yl)-n-propylsulfonamide], the inhibition at 50 mg/kg in the data set with Watermelon anthracnose (setting [6]) turned out to be 12.5%; in [1] it was 16.7%; with Wheat sheath blight, 47.7%; with Tomato early blight, 0%; in the data set on Wheat head blight it was 3.3%; with Apple ring rot, 0%. The inhibition at 50 mg/kg amounted to 16.7% in the data set with Rice bakanae disease (setting [6]) and 14.3% in the data set with Rice sheath blight. Besides, the mortality at 600 mg/kg in the data set with Maize borers was 20%; with Cotton bollworms, 10%; in [4], 95%. For the same molecule, the inhibition of growth at 50 mg/kg in data set [2] amounted to 26.3%; in the data set on Potato late blight, 22.2%; in the data set with Cucumber fusarium wilt it was 0%; in the data set with Sclerotinia rot of colza it was 35%; in data set [5], 24.5%. Also, the mortality at 10 mg/kg worked out at 55% in data set [3] (setting [7]) and 40% in data set [4]. In addition, the “Mortalities (%) Armyworms” value with Armyworms came out at 25%. In addition, the mortality at 100 mg/kg in data set [4] came out at 75%.

Take `CC1=NNC(=O)N(NS(=O)(=O)c2ccc3c(c2)OCCO3)C1` [Ia-34, N-(6-methyl-3-oxo-2,3-dihydro-1,2,4-triazin-4(5H)-yl)-2,3-dihydrobenzo[b][1,4]dioxin-6-sulfonamide]: the inhibition at 50 mg/kg with Watermelon anthracnose turned out to be 18.8%; in data set [1], 10.3%; in the data set on Wheat sheath blight it was 36.8%; in the data set with Tomato early blight, 16.1%; in the data set on Wheat head blight, 10.9%; in the data set on Apple ring rot, 39.2%. The inhibition at 50 mg/kg in the data set on Rice bakanae disease (setting [6]) worked out at 12.5%; in the data set on Rice sheath blight it was 4.7%. Further, the figures for the mortality at 600 mg/kg (in the data set with Maize borers; in the data set on Cotton bollworms; in [4]) were 10%, 10% and 90%, respectively. For the same molecule, the inhibition of growth at 50 mg/kg worked out at 13% in [2]; 3.1% in the data set with Potato late blight; 8.8% in the data set with Cucumber fusarium wilt; 6.6% in the data set on Sclerotinia rot of colza; 18.8% in [5]. Moreover, in data set [3] (setting [7]), the mortality at 10 mg/kg worked out at 15%. Moreover, the “Mortalities (%) Armyworms” value in the data set with Armyworms is on record as 15%. In addition, the mortality at 100 mg/kg in data set [4] was 35%.
